Measured values from ChEMBL document CHEMBL1799982, “Synthesis, protein kinase inhibitory potencies, and in vitro antiproliferative activities of meridianin derivatives” (J Med Chem, 2011).

What was measured:
IMR-32 = assay: Antiproliferative activity against human IMR32 cells by MTS reduction assay
PC-3 = assay: Antiproliferative activity against human PC3 cells after 48 hrs by resazurin reduction test; conditions: PC-3, 48 h
[1] = Antiproliferative activity against human primary fibroblasts after 48 hrs by resazurin reduction test; type: cell-based; conditions: Fibroblast
[2] = molecular target: Dual specificity protein kinase CLK1 (Homo sapiens, UniProt P49759)
SH-SY5Y = assay: Antiproliferative activity against human SH-SY5Y cells by MTS reduction assay
MCF7 = assay: Antiproliferative activity against human MCF7 cells after 48 hrs by resazurin reduction test; conditions: MCF7, 48 h
HT-22 = assay: Antiproliferative activity against mouse HT22 cells by MTS reduction assay
[3] = molecular target: Glycogen synthase kinase-3 (Sus scrofa, UniProt B2LUN4+I6LNT8); assay: Inhibition of pig brain GSK-3alpha/beta using YRRAAVPPSPSLSRHSSPHQSpEDEEE as substrate
[4] = Inhibition of pig brain CK1 delta/epsilon using RRKHAAIGpSAYSITA as substrate; design: species or system Sus scrofa
DU-145 = assay: Antiproliferative activity against human DU145 cells after 48 hrs by resazurin reduction test; type: functional, cell-based; conditions: DU-145, 48 h
[5] = molecular target: Dual specificity tyrosine-phosphorylation-regulated kinase 1A (Rattus norvegicus, UniProt Q63470); assay: Inhibition of rat recombinant GST-tagged DYRK1A using myelin protein as substrate and [gamma32]-ATP after 30 mins by scintillation counting
[6] = molecular target: Cyclin-dependent kinase 5/CDK5 activator 1 (Homo sapiens, UniProt Q00535); assay: Inhibition of human recombinant CDK5/p25 using Histone H1 and [gamma32]-ATP after 30 mins by scintillation counting; type: protein-complex assay
PA-1 = assay: Antiproliferative activity against human PA1 cells after 48 hrs by resazurin reduction test; type: functional, cell-based; conditions: PA-1, 48 h

Sequence of Cyclin-dependent kinase 5/CDK5 activator 1 (Q00535 whole entry): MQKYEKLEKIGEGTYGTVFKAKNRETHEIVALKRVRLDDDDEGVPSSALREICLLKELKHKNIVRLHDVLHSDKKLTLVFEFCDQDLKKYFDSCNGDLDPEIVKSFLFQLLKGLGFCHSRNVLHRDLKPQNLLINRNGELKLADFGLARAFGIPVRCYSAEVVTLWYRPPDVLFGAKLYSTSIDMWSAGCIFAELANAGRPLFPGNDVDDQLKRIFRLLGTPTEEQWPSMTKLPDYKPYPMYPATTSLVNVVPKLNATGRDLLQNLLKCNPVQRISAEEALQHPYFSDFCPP
Sequence of Cyclin-dependent kinase 5/CDK5 activator 1 (Q15078 whole entry, further chain): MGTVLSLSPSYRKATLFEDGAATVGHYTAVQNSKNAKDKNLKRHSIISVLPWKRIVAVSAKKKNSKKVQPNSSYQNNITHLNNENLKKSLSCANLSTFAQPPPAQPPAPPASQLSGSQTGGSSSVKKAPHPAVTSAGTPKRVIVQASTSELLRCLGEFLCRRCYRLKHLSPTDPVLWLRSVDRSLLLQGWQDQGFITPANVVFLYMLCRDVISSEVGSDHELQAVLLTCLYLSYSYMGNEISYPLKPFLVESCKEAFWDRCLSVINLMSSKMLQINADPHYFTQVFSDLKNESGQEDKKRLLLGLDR
Sequence of Dual specificity protein kinase CLK1 (P49759 whole entry): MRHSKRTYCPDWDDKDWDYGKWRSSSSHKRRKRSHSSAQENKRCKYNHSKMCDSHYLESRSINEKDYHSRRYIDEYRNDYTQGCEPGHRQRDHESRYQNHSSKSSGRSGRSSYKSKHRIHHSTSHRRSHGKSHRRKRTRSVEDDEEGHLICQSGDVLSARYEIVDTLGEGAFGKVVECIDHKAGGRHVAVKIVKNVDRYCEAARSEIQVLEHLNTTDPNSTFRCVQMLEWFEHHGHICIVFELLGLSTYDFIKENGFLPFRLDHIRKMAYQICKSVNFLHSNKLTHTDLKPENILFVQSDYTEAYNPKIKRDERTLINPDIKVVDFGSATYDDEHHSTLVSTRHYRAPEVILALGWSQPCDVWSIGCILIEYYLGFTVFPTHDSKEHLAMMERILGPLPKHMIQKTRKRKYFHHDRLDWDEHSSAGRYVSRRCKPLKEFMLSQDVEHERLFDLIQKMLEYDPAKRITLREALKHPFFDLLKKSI

| SMILES | IC50 (IMR-32) [µM] | IC50 (PC-3) [µM] | IC50 [1] [µM] | IC50 [2] [µM] | IC50 (SH-SY5Y) [µM] | IC50 (MCF7) [µM] | IC50 (HT-22) [µM] | IC50 [3] [µM] | IC50 [4] [µM] | IC50 (DU-145) [µM] | IC50 [5] [µM] | IC50 [6] [µM] | IC50 (PA-1) [µM] |
| --- | --- | --- | --- | --- | --- | --- | --- | --- | --- | --- | --- | --- | --- |
| CC(=O)Nc1ccc(-c2cnc(N)nc2-c2c[nH]c3cc(Br)ccc23)cc1 | > 10 | 14 | 24 | 0.53 | > 10 | > 10 | > 10 | 1.6 | 8.1 | 20 | 3.1 | > 10 | 12 |
| CC(=O)Nc1ccc(-c2cnc(N)nc2-c2c[nH]c3c(Br)cccc23)cc1 | 25 | 5 | 8 | 0.087 | 25 | > 25 | > 25 | 2.2 | > 10 | 13 | 0.19 | 7.5 | 3 |
| Nc1ncc(-c2ccc(C(F)(F)F)cc2)c(-c2c[nH]c3c(Br)cccc23)n1 | > 10 | 8 | 14 | 1.5 | > 10 | > 10 | > 10 | 8.5 | > 10 | 18 | 1.25 | > 10 | 17 |
| COc1cccc(-c2cnc(N)nc2-c2c[nH]c3c(Br)cccc23)c1 | > 10 | 29 | 31 | 0.87 | > 10 | > 10 | > 10 | > 10 | 4.2 | 33 | 0.85 | > 10 | 13 |
| Nc1ncc(I)c(-c2c[nH]c3cccc([N+](=O)[O-])c23)n1 | > 10 | 7 | 5 | 7.1 | > 10 | > 10 | > 10 | > 10 | > 10 | 5.4 | 9.1 | > 10 | 3.3 |
| Nc1ncc(I)c(-c2c[nH]c3ccc([N+](=O)[O-])cc23)n1 | 10 | 26 | 19 | 0.12 | > 25 | > 25 | 20 | 0.66 | 0.42 | 13.3 | 0.25 | 1.6 | 8.4 |
| Nc1ncc(I)c(-c2c[nH]c3cc([N+](=O)[O-])ccc23)n1 | 10 | 11 | 13 | 0.067 | 12 | > 25 | 18 | 2.6 | 1 | 6.3 | 0.095 | 1.6 | 2 |
| Nc1ncc(I)c(-c2c[nH]c3c([N+](=O)[O-])cccc23)n1 | > 10 | 6 | 4.7 | 0.041 | > 10 | > 10 | > 10 | > 10 | > 10 | 5.2 | 0.46 | > 10 | 3.2 |
| Nc1ncc(I)c(-c2c[nH]c3ccccc23)n1 | 10 | 10.6 | 8 | 0.03 | 7.5 | 17 | 7.3 | 3.7 | 0.9 | 5 | 0.066 | 1.4 | 3.3 |
| Nc1ncc(I)c(-c2c[nH]c3cccc(N)c23)n1 | > 10 | > 50 | > 50 | 1 | > 10 | > 10 | > 10 | > 10 | > 10 | > 50 | 2.8 | > 10 | 18 |
| Nc1ncc(I)c(-c2c[nH]c3cc(Br)ccc23)n1 | 3.8 | 2.9 | 3.5 | 0.032 | 3.2 | 5.2 | 5.1 | 1.1 | 0.7 | < 1 | 0.034 | 0.68 | < 1 |
| Nc1ncc(I)c(-c2c[nH]c3c(Br)cccc23)n1 | 7.3 | 15 | 10 | 0.042 | 8 | 17 | 12 | 4 | 1.6 | 4.2 | 0.039 | 2.1 | 2 |
| CC(=O)c1ccc(-c2cnc(N)nc2-c2c[nH]c3cc(Br)ccc23)cc1 | 0.33 | < 0.6 | < 0.6 | 1.8 | 0.4 | 1 | 2.5 | 2 | > 10 | < 0.6 | > 10 | > 10 | < 0.6 |
| CC(=O)c1ccc(-c2cnc(N)nc2-c2c[nH]c3c(Br)cccc23)cc1 | > 10 | 3.6 | 18.4 | 0.38 | > 10 | > 10 | > 10 | 4.5 | > 10 | 5.7 | 0.29 | > 10 | 0.8 |
